Test results from article PMC9232612, “A phase 1b randomised controlled trial of a glucagon-like peptide-1 and glucagon receptor dual agonist IBI362 (LY3305677) in Chinese patients with type 2 diabetes” (Nature Communications, 2022).
Where two headings read alike, the source gives them in different places.

Key:
[1] = Non-compartmental pharmacokinetics of IBI362 in plasma; assay type: in vivo; conditions: human, sc; for AUC(0-t): n=8, read-out: AUC0-168h, geometric mean (CV%); for Cmax: n=8, read-out: Cmax, geometric mean (CV%)
Excerpt: (§1) Standard non-compartmental pharmacokinetics methods were used to analyze IBI362 plasma concentration data using Pkanalix 2020R1 (Lixoft, Antony, France). Secondary efficacy outcomes included change from baseline to week 12 in HbA1c, fasting plasma glucose (FPG), fasting insulin levels, change from baseline to week 12 in post-mixed-meal tolerance test (post-MTT) glucose, insulin, C peptide, GLP-1 and OXM levels, as well as seven-point self-measured blood glucose (SMBG) profile.
Safety analyses were done in the safety population (defined as all patients who received at least one dose of the study treatment). Pharmacokinetic analyses were done in the pharmacokinetic population (defined as all patients who received at least one dose of IBI362 and had at least one valid plasma concentration assessment). Efficacy analyses were done in the efficacy population (defined as all patients who received at least one dose of the study treatment and had baseline and at least one post-baseline HbA1c assessment). Immunogenicity analyses were done in the immunogenicity population (defined as all patients who received at least one dose of the study treatment and had at least one post-baseline ADA result). […]
Table 3. PK/PD Sampling Schedule
sampling time hour hour hour hour 1 hour hour hour for
collection - - min min ± 30 mi 1h 2h 3h 4h 5h - ± 2h - min min - ± 2h - min min - - 2h 12h
Drug √ √ √ √ √ √ √ √ √ √ √ √ √ √ √
PK Sampling ● ● ● ● ● ● ● ● ● ● ● ● ● ● ● ● ● ● ● ● ● ● ●
1. PK sampling time points: Week 1 (intensive PK) PK sampling points: within 1 h before administration, 4 h ± 10 min, 8 h ± 20 min, 12 h ± 30 min, 24 h ± 1 h (Day 2), 48 h ± 2 h (Day 3), 72 h ± 3 h (Day 4), 96 h
± 4 h (Day 5), 120 h ± 5 h (Day 6) and within 1 h before administration on Day 8. Week 4: D22 for 48h ± 2h. Sparse sampling in Week 5: within 1 h before administration on Day 29, 4 h ± 10 min, 8 h ± 20 min after
administration and within 1 h before administration on Day 36. Week 8: D50 48h ± 2h. Sparse sampling in Week 9: within 1 h before administration on Day 57, 4 h ± 10 min, 8 h ± 20 min after administration and within
1 h before administration on Day 64. Sparse sampling at Week 12: Within 1h before administration, 48h ± 2h after administration (D80) and 168h ± 12h after administration (D85) on D78. If a patient fails to complete
the study and withdraws from the study prematurely, PK samples will be collected at early termination visit. Three (3) mL samples will be collected at each blood collection site and detailed procedures will be provided
in the central laboratory manual.
2. PD sampling (insulin/C-peptide/plasma glucose/glucagon/OXM/GLP-1) points: Week 1: within 48 hours ± 2 hours after dosing (Day 3), within 1 hour before dosing on Day 8; Week 5: within 1 hour before dosing
on Day 29; Week 9: within 1 hour before dosing on Day 57; Week 12: within 1 hour before dosing on D78 and 168 hours ± 12 hours after dosing (D85). PD samples will be collected at the early termination visit, if a
patient withdraw early due to failure to complete the study. All PD sampling will be performed in the fasted state. A total of 9 mL will be collected from each blood collection site, and the detailed operation process will
be described in the central laboratory manual.

[2] = system: Chinese patients with T2D; assay: Mixed-meal tolerance test (MTT) and fasting: OXM; assay type: in vivo, human; conditions: week 12; patients receiving IBI362
Description: HbA1c (2200101, Bio-Rad, USA), blood glucose (05168791190, Roche Diagnostics, Germany), insulin (12017547122, Roche Diagnostics, Germany), C peptide (03184897190, Roche Diagnostics, Germany), total GLP-1 (GLP-1 [7–36] amide and its metabolite, GLP-1 [9–36] amide, 10-1278-01, Mercodia AB, Sweden) and OXM (AL-139, AnshLabs, USA) tests were performed according to the manufactures’ instruction manuals in a central laboratory (KingMed Diagnostics, Guangzhou, China). HbA1c was measured using a Bio-rad D-100 Haemoglobin Testing System (Bio-rad). Blood glucose was measured using a Roche Cobas c702 analyser (Roche Diagnostics). Insulin and C peptide were measured using a Roche […] analyser (Roche Diagnostics). GLP-1 and OXM were measured using a Tecan Infinite M Plex microplate reader (TECAN).
as §1, with “profile. […]” for “profile.”
bag is added and mixed well. The time is counted from the first bite of eating. […]

diet-induced obese mice = conditions: preclinical data quoted in the protocol, ref not given; cited from earlier work
Excerpt: page 42: IBI362 Innovent Biologics (Suzhou) Co., Ltd. CIBI362A101 3%, abdominal obesity [waist circumference ≥ 90 cm (male) or ≥ 85 cm (female)] patients up to 45. 4% [15]. Although the occurrence of obesity is low compared with Caucasians, body fat tends t o accumulate in the abdominal cavity which is more likely to form abdominal obesity. Weight gain is an independent risk factor for the development of T2DM. Increased body weight or waist circumference can aggravate insulin resistance, increase the risk of T2DM, and the difficulty of glycemic control. Compared with patients with obesity ...

[3] = after the first dose (1.0 mg s.c.), 3.0 mg cohort
[4] = after the first dose (1.5 mg s.c.), 4.5 mg cohort
[5] = after the first dose (2.0 mg s.c.), 6.0 mg cohort

Tmax ([1]; after first s.c. dose, all IBI362 cohorts, n=24, read-out: median Tmax): ~72 h
AUC(0-t) [1, 3]: 12300 ng·h/mL
Cmax [1, 3]: 89.5 ng/mL
Tmax ([1]; after the first dose (1.0 mg s.c.), 3.0 mg cohort, n=8, read-out: Tmax, median (range)): 48.2 h
AUC(0-t) [1, 4]: 16500 ng·h/mL
Cmax [1, 4]: 109 ng/mL
Tmax ([1]; after the first dose (1.5 mg s.c.), 4.5 mg cohort, n=8, read-out: Tmax, median (range)): 72.2 h
AUC(0-t) [1, 5]: 22100 ng·h/mL
Cmax [1, 5]: 170 ng/mL
Tmax ([1]; after the first dose (2.0 mg s.c.), 6.0 mg cohort, n=8, read-out: Tmax, median (range)): 84 h
Structure (SMILES): CC(C)C[C@H](NC(=O)[C@H](CC(C)C)NC(=O)[C@H](Cc1c[nH]c2ccccc12)NC(=O)[C@H](CCC(=O)O)NC(=O)[C@@H](NC(=O)[C@H](Cc1ccccc1)NC(=O)[C@H](CCC(=O)O)NC(=O)[C@H](CCCCNC(=O)COCCOCCNC(=O)COCCOCCNC(=O)CC[C@H](NC(=O)CCCCCCCCCCCCCCCCCCC(=O)O)C(=O)O)NC(=O)[C@H](C)NC(=O)[C@H](CCCCN)NC(=O)[C@H](CCCCN)NC(=O)[C@H](CCC(=O)O)NC(=O)[C@H](CC(=O)O)NC(=O)[C@H](CC(C)C)NC(=O)[C@H](Cc1ccc(O)cc1)NC(=O)[C@H](CCCCN)NC(=O)[C@H](CO)NC(=O)[C@H](Cc1ccc(O)cc1)NC(=O)[C@H](CC(=O)O)NC(=O)[C@H](CO)NC(=O)[C@@H](NC(=O)[C@H](Cc1ccccc1)NC(=O)[C@@H](NC(=O)CNC(=O)[C@H](CCC(N)=O)NC(=O)C(C)(C)NC(=O)[C@@H](N)Cc1c[nH]cn1)[C@@H](C)O)[C@@H](C)O)C(C)C)C(=O)N[C@@H](CCC(=O)O)C(=O)NCC(=O)NCC(=O)N1CCC[C@H]1C(=O)N[C@@H](CO)C(=O)N[C@@H](CO)C(=O)NCC(N)=O [IBI362]
post-MTT OXM excursion [2]: markedly suppressed
weight loss effects (decreased appetite, weight loss) (diet-induced obese mice): significant weight loss effects
